Activity calls are given as the source filed them. The rule behind the calls is not given here.
Tests used:
[1] = test system: SUM149PT; assay: Antiproliferative activity against human SUM149PT cells after 48 hrs by SRB assay; format: functional, cell-based
[2] = test system: HCC1937; assay: Antiproliferative activity against human HCC1937 cells after 48 hrs by SRB assay; format: functional, cell-based; settings: HCC1937, 48 h
[3] = test system: SUM149PT; assay: Cell cycle arrest in human SUM149PT cells assessed as decrease in cells at S phase at 20 uM after 24 hrs by propidium iodide staining-based flow cytometric analysis; format: functional
[4] = test system: SUM149PT; assay: Inhibition of KLF5 expression levels in human SUM149PT cells after 24 hrs by Western blot analysis; format: functional, cell-based
[5] = test system: Rattus norvegicus; assay: AUC (0 to t) in Sprague-Dawley rat at 30 mg/kg administered via oral gavage by HPLC analysis; format: ADME, organism-based; settings: in vivo
[6] = test system: HCC1937; assay: Induction of PARP cleavage in human HCC1937 cells after 24 hrs by Western blot analysis; format: functional, cell-based
[7] = test system: Rattus norvegicus; assay: AUC (0 to infinity) in Sprague-Dawley rat at 30 mg/kg administered via oral gavage by HPLC analysis; format: ADME, organism-based; design: dose 30 mg/kg, route oral, time infinity; settings: in vivo
[8] = test system: Homo sapiens; assay: Antitumor activity against human UM1 cells implanted in Balb/C nude mouse at 1 mg, ip qd for 4 weeks; format: functional, organism-based
[9] = test system: Mus musculus; assay: Toxicity in Balb/C nude mouse implanted with human UM1 cells assessed as loss of body weight at 1 mg, ip qd for 4 weeks; format: organism-based; settings: in vivo, 672 h
[10] = test system: HCC1937; assay: Inhibition of KLF5 expression levels in human HCC1937 cells after 24 hrs by Western blot analysis; format: functional, cell-based
[11] = test system: SUM149PT; assay: Cell cycle arrest in human SUM149PT cells assessed as increase in cells at G1 phase at 20 uM after 24 hrs by propidium iodide staining-based flow cytometric analysis; format: functional
[12] = Cmax in Sprague-Dawley rat at 30 mg/kg administered via oral gavage by HPLC analysis; format: ADME, organism-based; design: dose 30 mg/kg, route oral; settings: in vivo
[13] = test system: SUM149PT; assay: Induction of PARP cleavage in human SUM149PT cells after 24 hrs by Western blot analysis; format: functional, cell-based
[14] = Elimination half life in Sprague-Dawley rat at 30 mg/kg administered via oral gavage by HPLC analysis; format: ADME, organism-based; settings: in vivo, read-out: beta t1/2 (converted)
[15] = Tmax in Sprague-Dawley rat at 30 mg/kg administered via oral gavage by HPLC analysis; format: ADME, organism-based; settings: in vivo
[16] = test system: SUM149PT; assay: Cell cycle arrest in human SUM149PT cells assessed as decrease in cells at S phase at 5 to 10 uM after 24 hrs by propidium iodide staining-based flow cytometric analysis; format: functional
[17] = test system: Mus musculus; assay: Acute toxicity in KM mouse assessed as behaviour change at 400 mg/kg, po administered as single dose; format: organism-based; settings: in vivo
[18] = test system: Mus musculus; assay: Acute toxicity in KM mouse assessed as loss of body weight at 400 mg/kg, po administered as single dose and measured every 3 days; format: organism-based; settings: in vivo, 72 h
[19] = test system: SUM149PT; assay: Cell cycle arrest in human SUM149PT cells assessed as increase in cells at G1 phase after 24 hrs by propidium iodide staining-based flow cytometric analysis; format: functional

| Compound | IC50 [1] [µM] | IC50 [2] [µM] | also measured |
| --- | --- | --- | --- |
| COc1cccc2c1C(=O)c1c(O)c3c(c(O)c1C2=O)C[C@@](O)(C(=O)CO)C[C@@H]3O[C@H]1C[C@H](N)[C@H](O)[C@H](C)O1 [DOXORUBICIN] | 0.36 | 0.44 |  |
| CC#C[C@]1(O)CC[C@H]2[C@@H]3CCC4=CC(=O)CCC4=C3[C@@H](c3ccc(N(C)C(=O)c4ccc(F)c(Cl)c4)cc3)C[C@@]21C | 9 |  |  |
| CC#C[C@]1(O)CC[C@H]2[C@@H]3CCC4=CC(=O)CCC4=C3[C@@H](c3ccc(N(C)C(=O)c4ccc(C)cc4)cc3)C[C@@]21C | 5 | 9.1 |  |
| CC#C[C@]1(O)CC[C@H]2[C@@H]3CCC4=CC(=O)CCC4=C3[C@@H](c3ccc(N(C)C(=O)c4ccncc4)cc3)C[C@@]21C | > 20 | > 20 |  |
| CC#C[C@]1(O)CC[C@H]2[C@@H]3CCC4=CC(=O)CCC4=C3[C@@H](c3ccc(N(C)C)cc3)C[C@@]21C [MIFEPRISTONE] | 15 | > 20 | Activity [3]: Active; inhibition [4]: Dose-dependent effect; AUCt [5]: 1.97 mg/L/h; Activity [6]: Dose-dependent effect; AUC [7]: 2.42 mg·h/L; Activity [8]: Active; Activity [9]: Non-Toxic; inhibition [10]: Dose-dependent effect; Activity [11]: inactive; Cmax [12]: 360 ng/mL; Activity [13]: Dose-dependent effect; half-life [14]: 181 min; Tmax [15]: 3.38 h |
| CC#C[C@]1(O)CC[C@H]2[C@@H]3CCC4=CC(=O)CCC4=C3[C@@H](c3ccc(N(C)C(=O)c4cccs4)cc3)C[C@@]21C | 12.5 |  |  |
| CC#C[C@]1(O)CC[C@H]2[C@@H]3CCC4=CC(=O)CCC4=C3[C@@H](c3ccc(N(C)C(=O)c4ccccc4)cc3)C[C@@]21C | 10.5 | 14.7 |  |
| CC#C[C@]1(O)CC[C@H]2[C@@H]3CCC4=CC(=O)CCC4=C3[C@@H](c3ccc(N(C)C(=O)c4ccccc4OC)cc3)C[C@@]21C | > 20 |  |  |
| CC#C[C@]1(O)CC[C@H]2[C@@H]3CCC4=CC(=O)CCC4=C3[C@@H](c3ccc(N(C)C(=O)c4ccc(Cl)c(Cl)c4)cc3)C[C@@]21C | 3.6 | 7.9 | inhibition [4]: Dose-dependent effect; Activity [16]: Active; AUCt [5]: 2.45 mg/L/h; Activity [6]: Dose-dependent effect; AUC [7]: 2.91 mg·h/L; Activity [8]: Active; Activity [9]: Non-Toxic; inhibition [10]: Dose-dependent effect; Activity [17]: Non-Toxic; Cmax [12]: 550 ng/mL; Activity [18]: Non-Toxic; Activity [13]: Dose-dependent effect; half-life [14]: 173 min; Activity [19]: Dose-dependent effect; Tmax [15]: 2.17 h |
| CC#C[C@]1(O)CC[C@H]2[C@@H]3CCC4=CC(=O)CCC4=C3[C@@H](c3ccc(N(C)C(=O)c4cnccn4)cc3)C[C@@]21C | > 20 |  |  |
| CC#C[C@]1(O)CC[C@H]2[C@@H]3CCC4=CC(=O)CCC4=C3[C@@H](c3ccc(N(C)C(=O)c4ccc(C)c(C)c4)cc3)C[C@@]21C | 5.6 | 6.1 |  |
| CC#C[C@]1(O)CC[C@H]2[C@@H]3CCC4=CC(=O)CCC4=C3[C@@H](c3ccc(N(C)C(=O)c4ccc(OC)c(Cl)c4)cc3)C[C@@]21C | > 20 |  |  |
| CC#C[C@]1(O)CC[C@H]2[C@@H]3CCC4=CC(=O)CCC4=C3[C@@H](c3ccc(N(C)C(=O)c4ccc(Cl)c(C(F)(F)F)c4)cc3)C[C@@]21C | > 20 |  |  |
| CC#C[C@]1(O)CC[C@H]2[C@@H]3CCC4=CC(=O)CCC4=C3[C@@H](c3ccc(N(C)S(=O)(=O)c4ccc(C)cc4)cc3)C[C@@]21C | > 20 | > 20 |  |
| CC#C[C@]1(O)CC[C@H]2[C@@H]3CCC4=CC(=O)CCC4=C3[C@@H](c3ccc(N(C)C(=O)c4ccc(C(C)(C)C)cc4)cc3)C[C@@]21C | 3.5 | 4.2 |  |
| CC#C[C@]1(O)CC[C@H]2[C@@H]3CCC4=CC(=O)CCC4=C3[C@@H](c3ccc(N(C)C(=O)c4cccc(C)c4)cc3)C[C@@]21C | 5 | 9 |  |
| CC#C[C@]1(O)CC[C@H]2[C@@H]3CCC4=CC(=O)CCC4=C3[C@@H](c3ccc(N(C)C(=O)c4cc(Cl)cc(Cl)c4)cc3)C[C@@]21C | 9 |  |  |
| CC#C[C@]1(O)CC[C@H]2[C@@H]3CCC4=CC(=O)CCC4=C3[C@@H](c3ccc(N(C)C(=O)c4ccc(C(C)C)cc4)cc3)C[C@@]21C | 4.2 | 4.2 |  |

| Compound | IC50 [1] [µM] | IC50 [2] [µM] | also measured |
| --- | --- | --- | --- |
| CC#C[C@]1(O)CC[C@H]2[C@@H]3CCC4=CC(=O)CCC4=C3[C@@H](c3ccc(N(C)C(C)=O)cc3)C[C@@]21C | > 20 | > 20 |  |
| CC#C[C@]1(O)CC[C@H]2[C@@H]3CCC4=CC(=O)CCC4=C3[C@@H](c3ccc(N(C)C(=O)c4cc(Cl)ccc4F)cc3)C[C@@]21C | > 20 |  |  |
| CC#C[C@]1(O)CC[C@H]2[C@@H]3CCC4=CC(=O)CCC4=C3[C@@H](c3ccc(N(C)C(=O)c4ccc(Cl)cc4)cc3)C[C@@]21C | 16.2 | 9.7 |  |
| CC#C[C@]1(O)CC[C@H]2[C@@H]3CCC4=CC(=O)CCC4=C3[C@@H](c3ccc(N(C)C(=O)c4cncs4)cc3)C[C@@]21C | > 20 |  |  |
| CC#C[C@]1(O)CC[C@H]2[C@@H]3CCC4=CC(=O)CCC4=C3[C@@H](c3ccc(N(C)C(=O)c4ccccc4Cl)cc3)C[C@@]21C | > 20 | 17.4 |  |
| CC#C[C@]1(O)CC[C@H]2[C@@H]3CCC4=CC(=O)CCC4=C3[C@@H](c3ccc(N(C)C(=O)c4nccs4)cc3)C[C@@]21C | > 20 |  |  |
| CC#C[C@]1(O)CC[C@H]2[C@@H]3CCC4=CC(=O)CCC4=C3[C@@H](c3ccc(N(C)C(=O)c4ccc(C)c(Cl)c4)cc3)C[C@@]21C | 4.7 |  |  |
| CC#C[C@]1(O)CC[C@H]2[C@@H]3CCC4=CC(=O)CCC4=C3[C@@H](c3ccc(N(C)C(=O)c4ccc5ccccc5c4)cc3)C[C@@]21C | 5 | 6.1 |  |
| CC#C[C@]1(O)CC[C@H]2[C@@H]3CCC4=CC(=O)CCC4=C3[C@@H](c3ccc(N(C)C(=O)c4cccc(Cl)c4)cc3)C[C@@]21C | 14.3 | 10.6 |  |
| CC#C[C@]1(O)CC[C@H]2[C@@H]3CCC4=CC(=O)CCC4=C3[C@@H](c3ccc(N(C)C(=O)c4ccc(Cl)c(F)c4)cc3)C[C@@]21C | > 20 |  |  |
| CC#C[C@]1(O)CC[C@H]2[C@@H]3CCC4=CC(=O)CCC4=C3[C@@H](c3ccc(N(C)C(=O)c4cccc(OC)c4)cc3)C[C@@]21C | 18 |  |  |
| CC#C[C@]1(O)CC[C@H]2[C@@H]3CCC4=CC(=O)CCC4=C3[C@@H](c3ccc(N(C)C(=O)Cc4ccccc4)cc3)C[C@@]21C | 7 | 9 |  |
| CC#C[C@]1(O)CC[C@H]2[C@@H]3CCC4=CC(=O)CCC4=C3[C@@H](c3ccc(N(C)C(=O)c4ccc(-c5ccccc5)cc4)cc3)C[C@@]21C | 16 | > 20 |  |
| CC#C[C@]1(O)CC[C@H]2[C@@H]3CCC4=CC(=O)CCC4=C3[C@@H](c3ccc(NC)cc3)C[C@@]21C [DESMETHYLMIFEPRISTONE] | > 20 | > 20 |  |
| CC#C[C@]1(O)CC[C@H]2[C@@H]3CCC4=CC(=O)CCC4=C3[C@@H](c3ccc(N(C)S(=O)(=O)c4ccccc4)cc3)C[C@@]21C | > 20 | > 20 |  |
| CC#C[C@]1(O)CC[C@H]2[C@@H]3CCC4=CC(=O)CCC4=C3[C@@H](c3ccc(N(C)C(=O)c4ccc(OC)cc4)cc3)C[C@@]21C | 12 |  |  |
| CC#C[C@]1(O)CC[C@H]2[C@@H]3CCC4=CC(=O)CCC4=C3[C@@H](c3ccc(N(C)C(=O)c4ccccn4)cc3)C[C@@]21C | > 20 | > 20 |  |

Source: ChEMBL document CHEMBL4196004, “Discovery of novel mifepristone derivatives via suppressing KLF5 expression for the treatment of triple-negative breast cancer” (Eur J Med Chem, 2018)
